Experimental data as given in ChEMBL document CHEMBL1201862, “PubChem BioAssay data set” (2004).
Each block holds one compound with its values, some of them ahead of it. Active and inactive are the calls of the source.

Experiments:
NS3 = NS3 (Hepatitis C virus, UniProt A3EZJ3); assay: PubChem AID 2173; parameters: species or system Hepacivirus hominis
Aminopeptidase N = target: T1, Aminopeptidase N (Plasmodium falciparum FcB1/Columbia, UniProt O96935); assay: P. falciparum M1AAP inhibitors, biochemical, fluorogenic H-Leu-NHMec substrate, 1536-well (AID 1445); parameters: species or system Plasmodium falciparum 3D7, 3D7
T1 sequence (O96935 whole entry): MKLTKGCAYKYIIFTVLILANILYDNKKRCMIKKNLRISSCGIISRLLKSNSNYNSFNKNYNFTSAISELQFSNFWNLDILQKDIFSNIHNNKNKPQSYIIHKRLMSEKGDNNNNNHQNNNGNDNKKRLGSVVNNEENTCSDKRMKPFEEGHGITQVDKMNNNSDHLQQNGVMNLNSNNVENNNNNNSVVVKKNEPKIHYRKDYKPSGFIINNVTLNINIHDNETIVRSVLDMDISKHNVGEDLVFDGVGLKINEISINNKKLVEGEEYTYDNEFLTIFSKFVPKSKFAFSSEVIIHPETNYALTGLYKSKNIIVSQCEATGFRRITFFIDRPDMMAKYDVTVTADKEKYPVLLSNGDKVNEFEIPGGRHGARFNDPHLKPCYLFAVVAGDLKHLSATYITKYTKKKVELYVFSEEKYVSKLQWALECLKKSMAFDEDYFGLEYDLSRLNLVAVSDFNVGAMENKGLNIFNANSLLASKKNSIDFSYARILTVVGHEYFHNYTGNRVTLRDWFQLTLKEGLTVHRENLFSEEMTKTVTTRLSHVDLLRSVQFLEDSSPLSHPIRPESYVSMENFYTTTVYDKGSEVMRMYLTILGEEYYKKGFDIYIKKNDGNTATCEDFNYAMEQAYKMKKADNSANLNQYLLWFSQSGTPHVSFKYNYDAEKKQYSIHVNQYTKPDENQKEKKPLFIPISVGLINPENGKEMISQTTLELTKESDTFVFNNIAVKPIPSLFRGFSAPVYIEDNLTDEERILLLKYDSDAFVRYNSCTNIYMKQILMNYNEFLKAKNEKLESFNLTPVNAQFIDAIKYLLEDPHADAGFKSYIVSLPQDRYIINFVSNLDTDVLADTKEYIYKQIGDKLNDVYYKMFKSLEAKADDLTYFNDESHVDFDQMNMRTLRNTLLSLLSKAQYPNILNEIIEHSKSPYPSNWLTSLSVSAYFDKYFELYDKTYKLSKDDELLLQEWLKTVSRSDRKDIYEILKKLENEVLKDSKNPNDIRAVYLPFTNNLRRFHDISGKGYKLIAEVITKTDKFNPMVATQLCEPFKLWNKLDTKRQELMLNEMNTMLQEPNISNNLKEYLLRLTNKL

[1] = target: T2, RNA-binding protein pos-1 (Caenorhabditis elegans, UniProt G5EF15); assay: inhibitors of POS-1/mex-3 RNA binding, dose response, biochemical, fluorescence polarization (AID 1964);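 note: purified POS-1 fused to maltose binding protein made in E. coli; potency of compounds blocking POS-1 binding to fluorescent RNA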
T2 sequence (G5EF15 whole entry): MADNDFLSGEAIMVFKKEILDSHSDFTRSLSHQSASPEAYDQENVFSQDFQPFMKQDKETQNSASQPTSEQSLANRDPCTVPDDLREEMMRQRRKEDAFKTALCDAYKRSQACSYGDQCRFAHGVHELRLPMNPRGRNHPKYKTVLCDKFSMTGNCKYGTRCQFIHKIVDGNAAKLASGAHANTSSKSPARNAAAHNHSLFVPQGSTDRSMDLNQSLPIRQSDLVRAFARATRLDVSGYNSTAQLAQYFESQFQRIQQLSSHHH

[2] = system: Streptococcus sp. 'group A'; assay: growth inhibition of control SK(-) GAS strain, dose response, counter-screen for streptokinase expression inhibitor project, luminescence, kanamycin, BacTiterGlo, confirmation (AID 1900); format: functional, organism-based
[3] = target: T3, Zinc finger protein mex-5 (Caenorhabditis elegans, UniProt Q9XUB2); assay: MEX-5/TCR-2 RNA interaction inhibitors, dose response, biochemical, C. elegans, fluorescence polarization (AID 1960)
T3 sequence (Q9XUB2 whole entry): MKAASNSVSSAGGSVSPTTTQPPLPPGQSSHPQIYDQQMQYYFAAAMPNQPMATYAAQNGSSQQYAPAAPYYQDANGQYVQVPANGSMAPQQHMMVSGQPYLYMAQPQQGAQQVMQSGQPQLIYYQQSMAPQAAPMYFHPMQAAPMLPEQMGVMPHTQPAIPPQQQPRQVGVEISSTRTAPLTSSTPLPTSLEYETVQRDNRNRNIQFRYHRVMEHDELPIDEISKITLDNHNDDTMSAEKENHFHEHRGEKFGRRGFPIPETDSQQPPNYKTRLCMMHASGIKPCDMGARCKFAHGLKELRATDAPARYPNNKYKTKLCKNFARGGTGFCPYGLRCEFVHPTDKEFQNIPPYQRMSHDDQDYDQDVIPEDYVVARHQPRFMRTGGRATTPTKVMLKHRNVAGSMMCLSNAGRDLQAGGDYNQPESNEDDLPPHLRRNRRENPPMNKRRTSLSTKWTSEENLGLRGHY

[4] = HIV-1 Env-mediated cell fusion inhibitors, dose response, CCR5-tropic Env (AID 2279); format: functional
[5] = target: Induced myeloid leukemia cell differentiation protein Mcl-1 (Homo sapiens, UniProt Q07820); format: functional
Induced myeloid leukemia cell differentiation protein Mcl-1, sequence (Q07820 whole entry): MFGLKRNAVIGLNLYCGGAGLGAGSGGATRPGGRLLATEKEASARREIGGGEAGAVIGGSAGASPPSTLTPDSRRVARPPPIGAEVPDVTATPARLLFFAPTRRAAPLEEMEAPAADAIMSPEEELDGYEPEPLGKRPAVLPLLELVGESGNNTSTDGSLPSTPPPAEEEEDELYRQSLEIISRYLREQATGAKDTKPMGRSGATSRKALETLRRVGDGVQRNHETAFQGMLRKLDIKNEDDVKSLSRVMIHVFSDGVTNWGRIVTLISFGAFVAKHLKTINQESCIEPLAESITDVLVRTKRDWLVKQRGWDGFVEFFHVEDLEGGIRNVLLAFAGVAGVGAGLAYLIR

Streptococcus = assay: Group A Streptococcus viability loss, dose response, counter-screen for streptokinase expression inhibitor project, luminescence, BacTiterGlo (AID 1915); format: functional, organism-based;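 note: potency for reduction of bacterial viability or growth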
[6] = target: T4, Alkaline phosphatase, tissue-nonspecific isozyme (Homo sapiens, UniProt P05186)
T4 sequence (P05186 whole entry): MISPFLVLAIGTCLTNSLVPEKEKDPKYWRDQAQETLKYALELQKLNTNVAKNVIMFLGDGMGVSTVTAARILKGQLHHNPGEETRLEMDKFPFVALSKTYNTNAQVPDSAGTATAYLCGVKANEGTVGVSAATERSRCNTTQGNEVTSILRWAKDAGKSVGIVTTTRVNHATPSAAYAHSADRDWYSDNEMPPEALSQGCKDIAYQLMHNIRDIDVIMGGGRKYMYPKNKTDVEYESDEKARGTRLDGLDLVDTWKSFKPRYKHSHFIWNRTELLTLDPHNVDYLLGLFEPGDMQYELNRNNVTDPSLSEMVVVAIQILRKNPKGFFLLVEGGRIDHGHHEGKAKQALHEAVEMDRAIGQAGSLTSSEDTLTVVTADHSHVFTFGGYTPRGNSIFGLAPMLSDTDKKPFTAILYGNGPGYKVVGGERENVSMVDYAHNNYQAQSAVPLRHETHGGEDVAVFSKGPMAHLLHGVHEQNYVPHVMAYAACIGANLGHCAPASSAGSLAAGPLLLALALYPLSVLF

[7] = target: Lysosomal acid glucosylceramidase (Homo sapiens, UniProt P04062); assay: Dose response cell-based high throughput screening assay to identify enhancers of beta-glucosidase activity. [Related pubchem assays: 784 ]; format: functional
Lysosomal acid glucosylceramidase, sequence (P04062 whole entry): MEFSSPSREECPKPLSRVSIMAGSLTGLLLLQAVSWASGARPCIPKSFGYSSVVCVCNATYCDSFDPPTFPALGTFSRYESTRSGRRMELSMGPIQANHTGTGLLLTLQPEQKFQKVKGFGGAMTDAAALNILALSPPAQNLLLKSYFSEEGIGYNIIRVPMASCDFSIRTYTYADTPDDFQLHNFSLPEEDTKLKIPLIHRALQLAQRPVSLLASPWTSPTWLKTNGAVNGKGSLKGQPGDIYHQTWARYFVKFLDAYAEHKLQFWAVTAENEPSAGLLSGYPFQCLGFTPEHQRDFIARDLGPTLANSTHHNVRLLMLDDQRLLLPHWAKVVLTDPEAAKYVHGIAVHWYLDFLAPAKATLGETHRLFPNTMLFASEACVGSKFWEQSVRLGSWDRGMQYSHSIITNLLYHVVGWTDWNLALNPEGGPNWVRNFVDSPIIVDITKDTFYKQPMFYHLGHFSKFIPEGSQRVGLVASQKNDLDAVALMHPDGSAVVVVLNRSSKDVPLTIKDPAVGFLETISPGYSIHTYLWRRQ

[8] = target: Neurotensin receptor type 1 (Homo sapiens, UniProt P30989); format: functional;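 note: Image-based confirmatory dose-response assay measuring agonist activity at NTR1; NTR1-expressing U2OS osteosarcoma cells imaged for beta-arrestin GFP spot formation; agonist potency where compounds increase beta-arrestin recruitment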
Neurotensin receptor type 1, sequence (P30989 whole entry, the tested form may be a part): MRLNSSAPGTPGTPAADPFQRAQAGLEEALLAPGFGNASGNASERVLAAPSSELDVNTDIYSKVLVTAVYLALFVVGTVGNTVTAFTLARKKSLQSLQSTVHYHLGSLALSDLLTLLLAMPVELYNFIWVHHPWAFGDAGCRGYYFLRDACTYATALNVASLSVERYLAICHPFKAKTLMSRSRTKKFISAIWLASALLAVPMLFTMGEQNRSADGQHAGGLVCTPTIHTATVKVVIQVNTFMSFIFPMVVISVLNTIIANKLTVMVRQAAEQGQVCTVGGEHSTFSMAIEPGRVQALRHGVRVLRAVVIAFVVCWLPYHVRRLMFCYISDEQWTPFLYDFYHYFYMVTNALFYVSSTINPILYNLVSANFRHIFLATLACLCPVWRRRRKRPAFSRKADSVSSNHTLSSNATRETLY

[9] = target: T5, Carboxy-terminal domain RNA polymerase II polypeptide A small phosphatase 1 (Homo sapiens, UniProt Q9GZU7); assay: inhibitors of CTDSP1, concentration-response testing, biochemical assay, absorbance-based, actives from ultra-high-throughput screening (AID 540297); format: functional
T5 sequence (Q9GZU7 whole entry): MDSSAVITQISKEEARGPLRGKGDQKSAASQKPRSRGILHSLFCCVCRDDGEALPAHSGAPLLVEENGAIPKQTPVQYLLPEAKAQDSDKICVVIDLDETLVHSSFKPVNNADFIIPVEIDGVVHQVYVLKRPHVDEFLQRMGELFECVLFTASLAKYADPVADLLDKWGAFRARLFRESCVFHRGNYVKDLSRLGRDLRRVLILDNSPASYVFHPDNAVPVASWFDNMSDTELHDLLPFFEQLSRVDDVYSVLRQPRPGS

NS3, sequence (A3EZJ3 whole entry): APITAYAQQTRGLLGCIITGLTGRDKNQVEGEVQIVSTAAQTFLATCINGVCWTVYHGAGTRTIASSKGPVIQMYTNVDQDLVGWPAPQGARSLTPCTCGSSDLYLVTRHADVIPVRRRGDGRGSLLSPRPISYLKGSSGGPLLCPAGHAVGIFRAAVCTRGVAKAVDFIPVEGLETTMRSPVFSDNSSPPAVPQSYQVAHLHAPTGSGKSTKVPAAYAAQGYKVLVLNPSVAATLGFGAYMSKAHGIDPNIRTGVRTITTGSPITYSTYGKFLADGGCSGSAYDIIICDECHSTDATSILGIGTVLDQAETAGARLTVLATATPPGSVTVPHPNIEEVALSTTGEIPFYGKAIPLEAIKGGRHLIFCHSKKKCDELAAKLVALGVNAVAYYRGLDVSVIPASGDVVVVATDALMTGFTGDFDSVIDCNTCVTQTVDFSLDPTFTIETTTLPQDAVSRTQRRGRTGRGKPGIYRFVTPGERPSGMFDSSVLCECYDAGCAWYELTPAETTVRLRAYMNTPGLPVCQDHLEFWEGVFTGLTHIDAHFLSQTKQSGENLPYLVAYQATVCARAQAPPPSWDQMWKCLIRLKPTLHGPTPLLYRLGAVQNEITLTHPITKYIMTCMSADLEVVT

Structure (SMILES): COC(=O)c1sc(N2C(=O)C(O)=C(C(=O)c3ccc(C)o3)C2c2cc(OC)ccc2OC)nc1C (centres undefined)
IC50 (NS3): 5.66 µM (active)

Structure (SMILES): O=c1cc(-c2ccccc2Cl)oc2c(NS(=O)(=O)c3cc(Cl)cc(Cl)c3O)ccc(O)c12
IC50 (Aminopeptidase N): 51.6 µM (active)
EC50 [1]: > 300 µM (not active)
EC50 [2]: 1 µM (active)
EC50 [3]: 4.54 µM (inconclusive)
IC50 [4]: 4.77 µM (active)
IC50 [5]: 3.4 µM (active)
EC50 (Streptococcus): 2.26 µM (active)

Structure (SMILES): Cc1cccc(-n2c(CNC(=O)c3cccc([N+](=O)[O-])c3C)n[nH]c2=S)c1
EC50 [6]: > 100 µM (not active)

Structure (SMILES): CCN(CC)c1nc2cc(OC)ccc2cc1C#N
EC50 [7]: > 10 µM (not active)

Results, then the compound that gave them:

EC50 [8]: 16.6 µM (active)
Structure (SMILES): O=C1c2ccc(Cl)cc2S(=O)(=O)c2cccc(C(=O)N3CCC(Cc4ccccc4)CC3)c21

IC50 (NS3): 7.07 µM (active)
IC50 [9]: 7.1 µM (active)
Structure (SMILES): N#C/C(=C\c1ccc(OCc2ccc(C(=O)O)cc2)cc1)C(=O)NCc1ccccc1

EC50 [8]: 17.6 µM (active)
Structure (SMILES): COC(=O)c1ccc2c(=O)n(CCCCCC(=O)N3CCN(c4ccccc4)CC3)c(=O)[nH]c2c1
